Data published in patent US11779649B2, “Antibodies to PMEL17 and conjugates thereof” (Novartis AG, priority 2018, dated 2023).
Where a chain is given by its changes, count along the chain named. Names and notes keep the numbering of the source. Like-named read-outs stand apart in the source and are kept apart here. Starred links: 1 amine or outer side, 2 acyl side, 3 side chain; linkers in the order of their positions; H or OH if unused. Positions of bridges follow the written chain, without caps; N, C: chain ends. Non-standard residues stand in square brackets, D forms with d. Residues, ends and D or L forms follow the SMILES beside them. *: point of attachment. Leu(3R-OH,Nα-propionyl) = CCC(=O)N[C@H](C(=O)*)[C@H](O)C(C)C; X1 = CC(C)[C@@H](O[*:3])[C@H](N[*:1])C(=O)[*:2]; NMeT = CN[C@H](C(=O)O)[C@@H](C)O; dPhLac = O=C(O)[C@H](O)Cc1ccccc1; NMeA = CN[C@@H](C)C(=O)O; NMeDha = C=C(NC)C(=O)O

Tests used:
[1] = test system: Human Platelet Rich Plasma (PRP); details: human PRP, 0.1, 1 and 150 nM, 4, 16 or 24 h, TRAP6 32 uM, FIG. 11
Experimental: Platelet aggregation was then measured following treatment with Thrombin Receptor Activating Peptide 6 (TRAP6) at 32 uM.

[2] = test system: 92.1 uveal melanoma; test: Resazurin-based viability assay, 92.1 uveal melanoma cells; format: cell-based
Experimental: (§1) Following drug treatment for 96 or 120 hours, cell viability and proliferation were determined using a resazurin-based viability assay. Briefly, cells were incubated with a resazurin-based solution and color change was detected by absorbance with a spectrophotometer and used as a readout of cell viability. Data presented as mean of 3 independent replicates and relative to PBS-treated cells (control).
as §1, with “(control) (FIG. 6).” for “(control).”
Following drug treatment for 96 or 120 hours, cell viability and proliferation were determined using a resazurin-based viability assay. Data presented as mean of 3 independent replicates and relative to PBS-treated cells (control) (FIG. 8).
as §1

[3] = Plasma stability of Compound (A1) in mouse, rat, monkey and human plasma compared to buffer; format: in vitro ADME; details: over 24 h, FIG. 4A-4B
Experimental: The plasma stability of Compound (A1) was investigated in mouse, rat, monkey and human plasma and compared to buffer. Both disappearance of Compound (A1) (FIG. 4A) as well as appearance of the ring-opened form of Compound (A1) having the structure of Compound (A4)
[drawing 153] (FIG. 4B) were monitored over 24 h.

[4] = test system: 92.1 cells; test: Annexin V flow cytometry apoptosis assay, 92.1 cells; format: cell-based; details: 92.1 and MIAPACA cells, FIG. 2
Experimental: (§2) 92.1 and MIAPACA cells were seeded in 96-well plates (5000 cells per well) and treated with increasing concentrations of Compound (A1), Compound (A2), and a fixed dose of Staurosporine (100 nM, positive control) as indicated. Following drug treatment for 96, cells were subjected to fluorescence-activated flow cytometry using an Annexin V antibody conjugated to a fluorescent dye. Data presented as mean of 3 independent replicates.
as §2, with “92.1” for “92.1 and MIAPACA”, “3207-(B1) (Isotype control), G4-(B1),” for “Compound (A2),”, “G1-(B1)” for “a fixed dose of Staurosporine (100 nM, positive control)”

[5] = PK of Compound (A1) after intravenous dosing in mouse; format: in vivo; details: for Vd: read-out: Vss
Excerpt: Table 5 summarizing all PK values is shown below.

[6] = test system: MIAPACA pancreatic ductal adenocarcinoma cells; test: Resazurin-based viability assay, MIAPACA cells; format: cell-based; details: Homo sapiens, MIA PaCa-2, WT, 96 or 120 hours, Table 4
Experimental: as §1, with “92.1 uveal melanoma and MIAPACA pancreatic ductal adenocarcinoma cells were seeded at low cell density in 96-well plates and treated with increasing concentrations of Compound (A1) or Compound (A2) as indicated. Following” for “Following”

[7] = test system: GNAQ/11; test: IP1 levels by TR-FRET in 92.1 uveal melanoma cells; format: cell-based; details: 92.1 cells, overnight treatment, FIG. 3A
Experimental: (§3) 92.1 uveal melanoma were treated with increasing concentrations of Compound (A1) or Compound (A2) as indicated. Following drug treatment overnight, cells were processed for determination of IP1 levels using TR-FRET (time-resolved fluorescent resonance energy transfer) or protein levels by western-blotting.
92.1 uveal melanoma were treated with DMSO, Compound (A1) (8 nM) and increasing concentrations of Isotype-(B1), anti-PMEL17-(B1) and anti-PMEL17-(B2) ADCs as indicated. Following drug treatment for 2 days, cells were processed for determination of IP1 levels using TR-FRET (time-resolved fluorescent resonance energy transfer). IP1 levels (nM) are presented as mean of 3 independent replicates.

[8] = test system: ERK signaling; test: Western-blotting of 92.1 cells, ERK signaling; format: cell-based; details: FIG. 3C
Experimental: as §3

[9] = Stability in buffer at pH 5.6 and in lysosomes; format: in vitro ADME; details: buffer pH 5.6, lysosomes, 4 h, FIG. 5D
Experimental: In vitro stability of Compound (A2) was tested in plasma and blood from different species (FIG. 5A). […]

[10] = Exposure of ADC formats in an in vivo efficacy study and payload ring-opening on the antibody; parameters: species or system mice; details: formats of G1-(B1), in vivo efficacy study, FIG. 14D
Excerpt: [drawing 156] (filled circles) while being conjugated to the antibody was shown in vivo in mice (FIG. 14C). […] From comparing the PK of the non-targeted 3207-ADCs (FIG. 14E) one can deduce that the Fc-silencing has a significant effect on lowering the clearance of the DAR4 format.

[11] = test system: 92.1-luciferase subcutaneous xenografts; test: 92.1-luciferase subcutaneous xenograft tumor growth in female nude mice; format: in vivo
Experimental: Treatment (single dose i.v. injection) was performed 17 days post tumor inoculation. Values are mean±SEM; sample size, (n=5-12 mice per group). Initial tumor volume at day 0 was approximately 200-250 mm^3.
Treatments (single dose i.v. injection) were performed 17 days post tumor inoculation. Values represent mean±SEM; sample size, (n=5-6 mice per group). Initial tumor volume at day 0 was approximately 300-325 mm^3. (FIG. 16).
Treatment (single dose i.v. injection) was performed 14-17 days post tumor inoculation. Values are mean±SEM; sample size, (n=5-12 mice per group). Initial tumor volume at day 0 was approximately 200-250 mm3.

With `C=C1C(=O)N[C@@H](C)C(=O)N(C)[C@@H](C)C(=O)N[C@@H]([C@H](OC(=O)[C@@H](NC(=O)CC)[C@H](O)C(C)C)C(C)C)C(=O)N(C)[C@@H]([C@@H](C)OC)C(=O)O[C@H](C(C)C)[C@H](NC(C)=O)C(=O)O[C@H](Cc2ccccc2)C(=O)N1C` [Compound (A1), (R)-1-((3S,6S,9S,12S,18R,21S,22R)-21-acetamido-18-benzyl-22-isopropyl-3-((R)-1-methoxyethyl)-4,9,10,12,16-pentamethyl-15-methylene-2,5,8,11,14,17,20-heptaoxo-1,19-dioxa-4,7,10,13,16-pentaazacyclodocosan-6-yl)-2-methylpropyl (2S,3R)-3-hydroxy-4-methyl-2-propionamidopentanoate] (Ac-[X1][dPhLac][NMeDha]A[NMeA][X1](Leu(3R-OH,Nα-propionyl))[NMeT](Me); ester 1-C) the “platelet aggregation after TRAP6” value [1] was “induced platelet aggregation”, the GI50 ([2]; 92.1, GNAQ^Q209L, 96 or 120 hours, Table 4, read-out: GI50) was 0.18 nM and the GI50 ([2]; 92.1 GNAQ^Q209L, Table 1, read-out: GI50 (nM) 92.1GNAQ^Q209L) was 0.467 nM. For the same molecule, the anti-UM activity ([2]; 92.1 vs MIAPACA, FIG. 1) was “potent target-dependent anti-UM activity”, the “transformation of Compound (A1) to ring-opened form in plasma” value [3] was “slightly faster in human plasma” and the “apoptosis (Annexin V)” value [4] was “induced apoptosis in UM cells in GNAQ/11 dependent manner”. For the same molecule, the “AUCinf/D (nM*h/(mg/kg))” value ([5]; 0.2 mg/kg) was 82 nM*h/(mg/kg), the “C0/D (nM/(mg/kg))” value ([5]; 0.2 mg/kg) was 217 nM/(mg/kg) and the “Cmax/D (nM/(mg/kg))” value ([5]; 0.2 mg/kg) was 156 nM/(mg/kg). For the same molecule, the “AUCinf/D (nM*h/(mg/kg))” value ([5]; 0.4 mg/kg) was 118 nM*h/(mg/kg), the “C0/D (nM/(mg/kg))” value ([5]; 0.4 mg/kg) was 270 nM/(mg/kg) and the “Cmax/D (nM/(mg/kg))” value ([5]; 0.4 mg/kg) was 208 nM/(mg/kg). For the same molecule, the “AUCinf/D (nM*h/(mg/kg))” value ([5]; 0.8 mg/kg) was 171 nM*h/(mg/kg), the “C0/D (nM/(mg/kg))” value ([5]; 0.8 mg/kg) was 475 nM/(mg/kg) and the “Cmax/D (nM/(mg/kg))” value ([5]; 0.8 mg/kg) was 300 nM/(mg/kg). The exposure with dose ([5]; 0.2-0.8 mg/kg) was “slightly over-proportional increase of exposure with dose”, the clearance ([5]; FIG. 4D) was “very high clearance” and the volume of distribution ([5]; FIG. 4D) was “moderate to high volume of distribution”. It also gave an AUC(0-inf) ([5]; in vivo, 0.2 mg/kg) of 0.016 µM·h, a C0 ([5]; in vivo, 0.2 mg/kg) of 43 nM and a Cmax ([5]; in vivo, 0.2 mg/kg) of 31 nM. It also gave a clearance ([5]; in vivo, 0.2 mg/kg, read-out: CL) of 204 mL/min/kg, a Vd ([5]; in vivo, 0.2 mg/kg) of 8.6 L/kg and an AUC(0-inf) ([5]; in vivo, 0.4 mg/kg) of 0.047 µM·h. It also gave a C0 ([5]; in vivo, 0.4 mg/kg) of 108 nM, a Cmax ([5]; in vivo, 0.4 mg/kg) of 83 nM and a clearance ([5]; in vivo, 0.4 mg/kg, read-out: CL) of 141 mL/min/kg. It also gave a Vd ([5]; in vivo, 0.4 mg/kg) of 4.9 L/kg, an AUC(0-inf) ([5]; in vivo, 0.8 mg/kg) of 0.137 µM·h and a C0 ([5]; in vivo, 0.8 mg/kg) of 380 nM. The Cmax ([5]; in vivo, 0.8 mg/kg) was 240 nM, the clearance ([5]; in vivo, 0.8 mg/kg, read-out: CL) was 97 mL/min/kg and the Vd ([5]; in vivo, 0.8 mg/kg) was 4.6 L/kg. For the same molecule, the GI50 [6] was over 10000 nM, the IP1 levels [7] was “reduced IP1 levels” and the “ERK signaling (immunoblots)” value [8] was “reduced ERK signaling”. The “stability in buffer and lysosomes” value [9] was “stable in buffer at pH 5.6 and in lysosomes over 4 h”.

B1: G1-E152C-DAR2-(B1) (conjugate)
heavy: QVQLVQSGAEVKKPGSSVKVSCKASGGTFSDYAITWVRQAPGQGLEWMGGIIPIFGTANYAQKFQGRVTITADESTSTAYMELSSLRSEDTAVYYCAREGGLLTDISYSRYWFAYWGQGTLVTVSS
light: DIELTQPPSVSVSPGQTASITCSGDALRDKFVYWYQQKPGQAPVLVIYDDNNRPSGIPERFSGSNSGNTATLTISGTQAEDEADYYCQSWDHSYSLVVFGGGTKLTVLGQPKAAPSVTLFPPSSEELQANKATLVCLISDFYPGAVTVAWKADSSPVKAGVETTTPSKQSNNKYAASSYLSLTPEQWKSHRSYSCQVTHEGSTVEKTVAPTECS
modifications: left off: a dimerising Fc or GST
In the case of B1, the GI50 ([2]; 92.1, Table 10, read-out: GI50) is reported as 0.365 nM, the “clearance / exposure of ADC formats” value [10] is reported as “lowest clearance” and the antitumor activity ([11]; 7.5 mg/kg single dose i.v., FIG. 16) is reported as “comparable antitumor activity”.

B2: Fc Silent G1-3J-DAR2 (E152C)-(B1) (conjugate)
heavy: B1 heavy
light: B1 light with D1S, I2Y, P8L, S13A, P14L, S19R, G76R, T77A, E80G
modifications: left off: a dimerising Fc or GST
For B2, the GI50 ([2]; 92.1, Table 10, read-out: GI50) was 0.278 nM and the tumor growth ([11]; single i.v. injection, FIG. 18) was “inhibited tumor growth in a dose-dependent manner”.
